From ChEMBL document CHEMBL1201862, “PubChem BioAssay data set” (2004) come the findings set out here.

One test concerns the target Kallikrein-7 (Homo sapiens, UniProt P49862). In words: Fluorescence Intensity-based biochemical primary high throughput dose response assay to identify activators of kallikrein-7 (K7) zymogen.
In test [1] the target is T1, Trace amine-associated receptor 1 (Homo sapiens, UniProt Q96RJ0).
T1 sequence (Q96RJ0 whole entry): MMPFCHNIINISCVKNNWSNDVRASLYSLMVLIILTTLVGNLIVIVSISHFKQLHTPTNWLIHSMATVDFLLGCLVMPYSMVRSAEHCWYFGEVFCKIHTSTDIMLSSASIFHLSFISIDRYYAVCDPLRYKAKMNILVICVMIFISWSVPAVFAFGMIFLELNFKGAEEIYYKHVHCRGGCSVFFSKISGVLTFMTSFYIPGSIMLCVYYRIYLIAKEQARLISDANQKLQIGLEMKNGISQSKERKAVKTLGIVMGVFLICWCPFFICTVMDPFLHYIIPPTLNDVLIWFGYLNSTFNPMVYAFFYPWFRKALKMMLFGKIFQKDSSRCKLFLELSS
Briefly: Fluorescence-based cell-based high throughput dose response assay to identify agonists of the human trace amine associated receptor 1 (TAAR1). Type of test: functional.

Test [2] can be described thus: HPDE-C7 pancreatic duct cell viability loss – fluorescence, HTS (AID 430). Format: functional, cell-based. To be noted: Homo sapiens.
Test [3] is described as follows: viability loss of HPDE-C7K cells – cell-based, fluorescence, HTS, primary screen (AID 431). Format: functional. The settings on record: Homo sapiens.
Test [4] in a line: cells. Type of test: functional, cell-based.
For test [5], the target named is T1, Trace amine-associated receptor 1. In words: Counterscreen for agonists of the human trace amine associated receptor 1 (hTAAR1): Fluorescence-based cell-based high throughput dose response assay to identify hTAAR1 agonist that also desensitize TAAR1 receptor response. Format: functional. (Counterscreens check selectivity or assay interference.)
Test [6] is described as follows: cells. Format: functional, cell-based. The source holds these as a separate data set.
The target of test [7] is Heat shock protein HSP 90-alpha (Homo sapiens, UniProt P07900). Briefly: Luminescence-based dose response biochemical high throughput screening assay for inhibitors of the Heat Shock Protein 90 (HSP90). [Related pubchem assays: 1831 (Summary AID.), 1846 (Confirmation screen.), 1789 (Primary screen.)].
Test [8] can be described thus: alpha-synuclein stem-loop luciferase translation blockers – H4 neuroglioma cells, luminescence, confirmation (AID 1988). Format: functional, cell-based.
The nature of test [9]: luciferase reporter signal suppression in cells – H4 neuroglioma cells, luminescence, dose response (AID 1990). Type of test: functional, cell-based.
Test [10] is described as follows: Luminescence Cell-Based Dose Response HTS to Identify Inhibitors of 5'UTR Stem-Loop Driven Prion Protein mRNA Translation in H4 Neuroglioblastoma Cells. [Related pubchem assays: 1827 (Project Summary), 1813 (Primary HTS)]. Format: functional.
Test [11] concerns the target T2, Mannose-6-phosphate isomerase (Homo sapiens, UniProt P34949).
T2 sequence (P34949 whole entry): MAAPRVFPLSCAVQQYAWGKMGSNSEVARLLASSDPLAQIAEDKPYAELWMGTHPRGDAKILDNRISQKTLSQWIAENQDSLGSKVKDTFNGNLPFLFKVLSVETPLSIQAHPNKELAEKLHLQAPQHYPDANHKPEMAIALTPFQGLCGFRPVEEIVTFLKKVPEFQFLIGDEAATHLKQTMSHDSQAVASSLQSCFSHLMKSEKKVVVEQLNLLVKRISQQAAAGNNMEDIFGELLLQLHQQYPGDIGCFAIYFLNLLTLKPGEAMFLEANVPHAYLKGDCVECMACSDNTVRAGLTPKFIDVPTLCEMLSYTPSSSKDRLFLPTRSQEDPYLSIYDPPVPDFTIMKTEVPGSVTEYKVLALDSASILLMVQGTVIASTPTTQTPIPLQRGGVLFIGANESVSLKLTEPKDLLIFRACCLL
Briefly: MPI inhibition at elevated mannose 6-phosphate – biochemical, fluorescence intensity, high mannose 6-phosphate, primary screen (AID 1220).

Test [12] in a line: blockade of melanocortin 4 receptor signaling – cell-based, plate reader, cherry pick, counter-screen for LGR2 antagonist project, dose response (AID 743444).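 Also: transfected HEK 293 cells stimulated with alpha-MSH peptide; potency of inhibitors of the alpha-MSH evoked signal.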 Format: functional.
Test [13] can be described thus: blockers of bursicon-stimulated LGR2 cAMP reporter – cell-based, HEK293, CRE-luciferase reporter, cherry pick, set 2, dose response (AID 743343).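 Also: transfected cells were stimulated with diluted bursicon conditioned medium after compound addition.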 Type of test: functional. (In general: In a reporter assay the amount or activity of a reporter protein is the signal.)
A short description of test [14]: cells. Format: functional, cell-based. This is another data set of the same source.
A short description of test [15]: toxicity toward HepG2 liver cells – cell-based, plate reader, cherry-pick, antagonist series, cytotoxicity control, dose response (AID 743416). Type of test: functional.
The nature of test [16]: A549 cell cytotoxicity, dose response, cytotoxicity control, plate reader, cherry-pick, antagonist series (AID 743412). Format: functional, cell-based.
Test [17] is described as follows: cells. Format: functional, cell-based. The source holds these as a separate data set.
A short description of test [18]: viability loss in HEK293 cells – cell-based, plate reader, cherry-picked samples, cytotoxicity control, dose response (AID 743446). Type of test: functional.
Test [19] is described as follows: cells. Format: functional, cell-based. To be noted: HEK-CNG.
Test [20] has as its target T3, COUP transcription factor 2 (Homo sapiens, UniProt P24468).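 Also: HEK293 cells transiently cotransfected with COUP-TFII expression vector and reporter; luciferase reporter luminescence driven by COUP-TFII from the pX2-168 reporter plasmid.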
T3 sequence (P24468 whole entry): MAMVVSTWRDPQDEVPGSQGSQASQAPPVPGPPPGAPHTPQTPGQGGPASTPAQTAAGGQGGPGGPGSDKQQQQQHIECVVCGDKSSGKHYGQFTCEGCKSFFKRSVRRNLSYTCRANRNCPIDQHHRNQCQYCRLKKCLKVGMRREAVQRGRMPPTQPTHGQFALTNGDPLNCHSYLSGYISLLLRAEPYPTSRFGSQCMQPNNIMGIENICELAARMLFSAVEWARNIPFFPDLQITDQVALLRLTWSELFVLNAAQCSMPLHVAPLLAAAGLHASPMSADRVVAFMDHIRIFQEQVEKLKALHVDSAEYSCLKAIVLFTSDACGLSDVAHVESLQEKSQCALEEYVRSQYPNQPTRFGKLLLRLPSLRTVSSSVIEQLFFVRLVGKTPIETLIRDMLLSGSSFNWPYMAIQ
Briefly: Luminescence-based cell-based high throughput dose response assay to identify inhibitors of COUP-TFII (NR2F2). Format: functional.

For the next test, the target named is T4, Galanin receptor type 3 (Homo sapiens, UniProt O60755).
T4 sequence (O60755 whole entry): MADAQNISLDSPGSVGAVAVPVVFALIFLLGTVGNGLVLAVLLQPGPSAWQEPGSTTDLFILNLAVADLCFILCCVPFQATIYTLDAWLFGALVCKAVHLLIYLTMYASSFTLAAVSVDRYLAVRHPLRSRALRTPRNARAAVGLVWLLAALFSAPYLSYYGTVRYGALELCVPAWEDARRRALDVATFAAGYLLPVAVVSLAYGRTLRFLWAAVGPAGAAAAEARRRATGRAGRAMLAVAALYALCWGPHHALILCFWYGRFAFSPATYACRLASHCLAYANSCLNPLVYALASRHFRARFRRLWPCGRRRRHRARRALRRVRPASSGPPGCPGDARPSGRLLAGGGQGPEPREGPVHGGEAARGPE
In words: Fluorescence-based cell-based primary high throughput dose response assay to identify antagonists of the Galanin Receptor 3 (GalR3). Format: functional.

Another test deals with T5, Caspase-6 (Homo sapiens, UniProt P55212).
T5 sequence (P55212 whole entry): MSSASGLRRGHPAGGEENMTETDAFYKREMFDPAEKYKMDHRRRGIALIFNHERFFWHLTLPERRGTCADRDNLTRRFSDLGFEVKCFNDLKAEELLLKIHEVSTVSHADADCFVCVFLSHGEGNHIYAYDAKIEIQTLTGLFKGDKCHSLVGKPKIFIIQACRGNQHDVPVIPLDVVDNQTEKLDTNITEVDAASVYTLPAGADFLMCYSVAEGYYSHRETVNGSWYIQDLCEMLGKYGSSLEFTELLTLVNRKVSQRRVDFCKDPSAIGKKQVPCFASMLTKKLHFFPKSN
In words: inhibition of CASP6 peptide cleavage – biochemical, VEID-R110 fluorescence, cherry-pick, dose response (AID 720632).

Test [21] in a line: potency of ADAM10 substrate cleavage blockers – biochemical, QFRET, dose response (AID 743254).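 Also: ADAM10 enzyme with the DM2 quenched FRET peptide as substrate; EDANS fluorescence gain as the protease cuts the substrate; inhibitor potency against ADAM10 proteolytic activity.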
The target in test [22] is Disintegrin and metalloproteinase domain-containing protein 17 (Homo sapiens, UniProt P78536). In words: inhibition of ADAM17 substrate cleavage – biochemical, quenched FRET substrate, counter-screen for ADAM10 exosite inhibitor project, dose response (AID 743253).
A further test concerns the target Paired box protein Pax-8 (Homo sapiens, UniProt Q06710). In words: PAX8 transcriptional activity inhibition in RMG-I – RMG-I cells, luciferase, cherry-pick, dose response (AID 687027).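 Also: luciferase reporter driven by Pax8 target thyroperoxidase promoter measured by SteadyGlo luminescence.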 Format: functional, cell-based.
Test [23] in a line: general cell-killing toxicity readout – plate reader, dry powder samples, cytotoxicity control for PAX8 inhibitor project, dose response (AID 743021). Format: functional, cell-based.
Test [24] can be described thus: Trypanosoma cruzi growth suppression in host cells – NIH3T3 host cells, beta-gal luminescence, confirmation (AID 2044).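 Also: intracellular parasites grown in NIH/3T3 mouse fibroblasts as host cells; luminescent beta-galactosidase reporter signal from transgenic T. cruzi replicating inside host cells; inhibitors lower the luminescence signal.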 Type of test: functional, cell-based.
The nature of test [25]: HEK-293T cell viability reduction – luminescence, B-cell screen hits, cytotoxicity control for BCR NF-kB inhibitor project, dose response (AID 489021).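 Also: HEK-293T cells carrying an NF-kB luciferase reporter; cells exposed to compound for about 14 hours before viability readout.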 Type of test: functional, cell-based.
Test [26] can be described thus: NIH3T3 cell viability loss – ATP luminescence, mouse fibroblasts, counter-screen, dose response (AID 2010).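 Also: cells exposed to compound for about 90 hours before reading.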 Type of test: functional, cell-based.
Test [27] in a line: P. falciparum Dd2 growth inhibitors, dose response, SYBR Green, cherry-picked samples (AID 1159567). Type of test: functional, cell-based.

Broadly, the EC50 is the midpoint of the concentration-response curve. By IC50 is commonly meant the point on the concentration scale where inhibition reaches its midpoint. Broadly, the AC50 is the concentration at which the activity in the assay is half-maximal.

Structures are written as SMILES. Activity calls are given as the source filed them. Where only a bound is given, the exact number is not on record here.

Kallikrein-7, sequence (P49862 whole entry): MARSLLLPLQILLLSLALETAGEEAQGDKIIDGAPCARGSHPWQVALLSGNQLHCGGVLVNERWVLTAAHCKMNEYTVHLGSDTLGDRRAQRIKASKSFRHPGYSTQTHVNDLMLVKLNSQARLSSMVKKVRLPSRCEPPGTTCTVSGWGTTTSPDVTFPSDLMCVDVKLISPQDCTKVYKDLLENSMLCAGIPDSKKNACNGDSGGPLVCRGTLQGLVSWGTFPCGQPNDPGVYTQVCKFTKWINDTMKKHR
Disintegrin and metalloproteinase domain-containing protein 17, sequence (P78536 whole entry, the tested form may be a part): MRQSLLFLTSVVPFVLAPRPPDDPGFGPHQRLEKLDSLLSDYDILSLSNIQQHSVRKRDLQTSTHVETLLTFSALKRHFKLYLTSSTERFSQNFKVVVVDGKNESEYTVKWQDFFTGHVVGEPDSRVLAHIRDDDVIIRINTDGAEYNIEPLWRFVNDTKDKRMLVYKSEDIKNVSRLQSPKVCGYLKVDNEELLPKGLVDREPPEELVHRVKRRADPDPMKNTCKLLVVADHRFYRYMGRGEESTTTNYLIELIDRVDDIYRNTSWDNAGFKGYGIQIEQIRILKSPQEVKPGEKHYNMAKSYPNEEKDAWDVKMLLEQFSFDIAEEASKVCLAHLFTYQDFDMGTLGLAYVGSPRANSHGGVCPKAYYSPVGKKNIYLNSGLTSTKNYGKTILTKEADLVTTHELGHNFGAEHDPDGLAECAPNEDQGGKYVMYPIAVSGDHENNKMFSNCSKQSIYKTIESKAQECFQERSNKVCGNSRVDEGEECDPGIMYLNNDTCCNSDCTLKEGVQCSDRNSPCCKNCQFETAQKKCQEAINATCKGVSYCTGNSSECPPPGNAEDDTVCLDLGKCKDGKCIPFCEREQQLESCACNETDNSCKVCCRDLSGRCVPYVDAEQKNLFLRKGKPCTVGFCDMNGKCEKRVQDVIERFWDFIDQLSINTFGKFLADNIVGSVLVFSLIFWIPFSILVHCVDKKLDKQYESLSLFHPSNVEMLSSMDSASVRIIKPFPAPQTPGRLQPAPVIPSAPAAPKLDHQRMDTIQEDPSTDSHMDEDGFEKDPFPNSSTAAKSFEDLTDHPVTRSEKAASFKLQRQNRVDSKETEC
Paired box protein Pax-8, sequence (Q06710 whole entry): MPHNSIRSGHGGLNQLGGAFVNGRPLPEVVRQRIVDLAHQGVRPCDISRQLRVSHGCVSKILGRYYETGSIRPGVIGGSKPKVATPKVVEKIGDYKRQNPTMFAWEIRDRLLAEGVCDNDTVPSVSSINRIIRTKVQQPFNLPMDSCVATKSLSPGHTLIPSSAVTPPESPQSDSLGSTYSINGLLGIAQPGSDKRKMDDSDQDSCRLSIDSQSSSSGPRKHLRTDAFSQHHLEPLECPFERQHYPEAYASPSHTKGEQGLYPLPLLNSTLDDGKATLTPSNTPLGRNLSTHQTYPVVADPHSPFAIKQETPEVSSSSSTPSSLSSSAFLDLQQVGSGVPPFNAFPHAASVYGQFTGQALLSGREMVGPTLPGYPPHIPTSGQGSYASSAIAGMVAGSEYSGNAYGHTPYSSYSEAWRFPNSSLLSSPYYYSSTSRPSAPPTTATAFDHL

With `CCN(CC)S(=O)(=O)c1cccc(-c2cn3cccnc3n2)c1`, the EC50 on Kallikrein-7 was > 69.5 µM (inactive).

`O=C(CCN1CCc2ccccc2CC1)c1ccc2c(c1)OCCO2`: the EC50 was 254 nM (active) in test [1], 13.1 µM (active) in test [2], 11.3 µM (active) in [3] and > 29.9 µM (inactive) in the test “cells [6]”. Further, the IC50 in “cells [4]” is > 29.9 µM (inactive); in test [5], 828 nM (active).

Regarding `N=c1c(C(=O)NC2CCCC2)cc2c(=O)n3ccccc3nc2n1CC1CCCO1` (stereo not given), at Kallikrein-7, the EC50 was 26.8 µM (inactive).

With `O=C(OCc1ccccn1)c1ccc(COc2ccc3ccccc3c2)o1`, the IC50 in test [7] was 2.61 µM (active).

`C=CCNc1nc(NCc2ccccc2)c(C#N)c2c1CN(C)CC2`: the EC50 in test [8] was > 120 µM (not active); in [9], > 120 µM (not active); in test [10], > 120 µM (not active); on Kallikrein-7, 13.1 µM (inactive). Moreover, the IC50 in [11] is listed as > 50 µM (not active).

Consider `C#CCn1cc(/C=C2\NC(=O)NC2=O)c2ccccc21`, for which, in [7], the IC50 was 1.31 µM (active).

Consider `CN(c1cccc(Cl)c1)S(=O)(=O)c1cccc(C(=O)Nc2nc3ccccc3[nH]2)c1`, for which the AC50 is 19.6 µM (active) in test [12]; 24.5 µM (active) in test [13]; 22.1 µM (active) in test [15]; 14 µM (active) in [16]; 21.1 µM (active) in test [18]. The EC50 was > 350 µM (not active) in “cells [14]” and 27.2 µM (active) in “cells [17]”.

Consider `Cc1cccc(Cl)c1NC(=O)N1CCCN(c2nc3ccc(Cl)cc3s2)CC1`, for which the EC50 in “cells [19]” is > 29.9 µM (inactive). The IC50 in [20] is 11.3 µM (inactive); on Galanin receptor type 3 it was 2.06 µM (active).

As for `O=C(O)c1ccc([N+](=O)[O-])c([N+](=O)[O-])c1`, the AC50 at Caspase-6 was 12.3 µM (active).

As for `CCCCC[C@H](C)N1C[C@@H](COCc2ccccc2)Oc2cc(N3CC[C@H](O)C3)ccc2S1(=O)=O`, the IC50 is 8.14 µM (active) in test [21] and > 69.5 µM (inactive) in test [22].

For the compound `C[C@@H]1CCCCO[C@H](CN(C)C(=O)NC2CCCCC2)[C@H](C)CN([C@@H](C)CO)C(=O)c2cc(NS(=O)(=O)c3ccc(Cl)cc3)ccc2O1`, the AC50 at Paired box protein Pax-8 was 10.5 µM (active); in test [23], 52.5 µM (active).

Turning to `CCCCCCCCN1C(=O)[C@@H](CC(=O)NCc2ccc(OC)c(OC)c2)C[C@@]2(C(=O)OC)C1=C[C@H](C(C)C)O[C@@H]2C1CC1`, the IC50 in test [21] was 10.8 µM (inactive); in test [22] it was > 69.5 µM (inactive).

In the case of `COc1ccccc1NC(=O)C(=N\O)/C(C)=N/O`, the AC50 on Caspase-6 was 11.2 µM (active).

For the compound `COc1ccc(/C=N/OCC(=O)NC(c2ccccc2)c2ccccc2)cc1OC`, the EC50 in “cells [19]” was > 29.9 µM (inactive); in test [24], 560 nM (active); in test [26] it was > 60 µM (not active). The IC50 was 5.09 µM (active) in test [20], 1.23 µM (active) at Galanin receptor type 3 and > 80 µM (inactive) in test [25].

Consider `COc1ccc2c3c(n(C)c2c1)[C@@H](CO)N(Cc1ccccc1)CC31CCN(S(=O)(=O)c2ccc(C)cc2)CC1`, for which the AC50 in test [27] is 6.1 µM (active).
